In paper PMC3201017, “Modification of the loops in the ligand-binding site turns avidin into a steroid-binding protein” (BMC Biotechnology, 2011):
Where a name gives a salt, the structure may show the parent alone.

Columns and labels:
[1] = target: T1, sbAvd-1 (steroid-binding avidin mutant) (Gallus gallus, UniProt P02701, D37R/L38M/G39N/S40H); assay: microplate binding to immobilized HSA-conjugated progesterone
T1 construct: gene AVD; full avidin core, homotetramer, produced in E. coli

[2] = target: T2, sbAvd-2 (steroid-binding avidin mutant) (Gallus gallus, UniProt P02701, D37R/L38M/G39N/S40H/T59A/A60T/T62N); assay: as above
T2 construct: gene AVD; full avidin core, homotetramer, produced in E. coli

[3] = target: T1, sbAvd-1 (steroid-binding avidin mutant); assay: SPR competition on testosterone-BSA chip, […] inhibitor
[4] = target: T2, sbAvd-2 (steroid-binding avidin mutant); assay: as above
[5] = target: the molecule itself; assay: SEC; FPLC gel-filtration, Superdex 200 10/300 GL, calibrated with a molecular-mass standard; 20 mM sodium phosphate pH 7.4, 1 M NaCl, 20 mM imidazole; 90-193 μg protein in 500 μl

CC(=O)[C@H]1CC[C@H]2[C@@H]3CCC4=CC(=O)CC[C@]4(C)[C@H]3CC[C@]12C [PRO, progesterone]
microplate binding to immobilized HSA-conjugated progesterone [1]: sbAvd-1 also binds other steroid hormones, such as progesterone and DHEAS
microplate binding to immobilized HSA-conjugated progesterone [2]: these modified Avds showed clear binding to testosterone and progesterone

C[C@]12CC[C@H](OS(=O)(=O)O)CC1=CC[C@@H]1[C@@H]2CC[C@]2(C)C(=O)CC[C@@H]12 [DHEAS, dehydroepiandrosterone sulfate]
SPR competition on testosterone-BSA chip, 50 μM inhibitor [3]: SbAvd-1 was found to be cross-reactive with androgens highly similar to testosterone (DHEAS and androstenedione)
SPR competition on testosterone-BSA chip, 50 μM inhibitor [4]: The binding of sbAvd-2 to testosterone was found to be most efficiently inhibited by testosterone and DHEAS

B1: steroid-binding avidin mutant sbAvd-1 (designed binder)
chain: ARKCSLTGKWTNRMNHNMTIGAVNSRGEFTGTYITAVTATSNEIKESPLHGTQNTINKRTQPTFGFTVNWKFSESTTVFTGQCFIDRNGKEVLKTMWLLRSSVNDIGDDWKATRVGINIFTRLRTQKE
notes: chicken avidin (Avd) with the loop between beta-strands 1 and 2 (N12, D13, L14, G15, S16) changed to N12, R13, M14, N15, H16; selected by phage display from the Avd L1,2 library; source: E. coli BL21-AI, pET101/D, secreted with the OmpA signal of Bordetella avium, purified (Ni-NTA)
stoichiometry N [5]: 4

B2: steroid-binding avidin mutant sbAvd-2 (designed binder)
chain: ARKCSLTGKWTNRMNHNMTIGAVNSRGEFTGTYIATVNATSNEIKESPLHGTQNTINKRTQPTFGFTVNWKFSESTTVFTGQCFIDRNGKEVLKTMWLLRSSVNDIGDDWKATRVGINIFTRLRTQKE
notes: selected by phage display from the sbAvd-1 L3,4 library; source: E. coli BL21-AI, pET101/D, secreted with the OmpA signal of Bordetella avium, purified (Ni-NTA)
stoichiometry N [5]: 4
